Patent US12343331B2, “Methods and agents that stimulate mitochondrial turnover for treating disease” (Capacity Bio, Inc., priority 2021, dated 2025)
Non-standard residues stand in square brackets, D forms with d. Residues, ends and D or L forms follow the SMILES beside them. Nle = CCCC[C@H](N)C(=O)O

These compounds were tested on INS1 cells (assay: Mitochondrial content / cellular mitochondrial mass by imaging). Details: INS1 cell line; 8 hours, 24 hours, and 72 hours; three concentrations; FIG. 9; normalized to DMSO.
Assay type: cell-based
Method: Cells were cultured on coverslips inside a Petri dish filled with the appropriate culture medium or grown directly into a four-chamber glass bottom dish and cells were subsequently imaged on the LSM880. At least 30 cells per condition per experiment were collected, at least three separate experiments were performed for imaging clonal cells. Image analysis was performed in the CellProfiler™ software (cellprofiler.org) to measure mitophagic events. Individual mitochondrial fluorescence intensity and area were measured in CellProfiler™ and imported into Microsoft Excel®. Mitochondria smaller than 2 pixels in area were not included in final analyses. Images were subjected to top hat filtering followed by global threshold Otsu method to segment mitochondria. To assess amount of mitochondrial content, green fluorescence intensity of objects identified as mitochondrial structures were quantitated. Data has been normalized to the control treatment, dimethyl sulfoxide (DMSO).
In the case of `CCCCOC(=O)NS(=O)(=O)c1ccc(OC(F)(F)F)cc1-c1ccc(Cn2ccnc2)cn1` [Compound 7], the “cellular mitochondrial mass (mitochondrial content)” value (shortened to “cellular mitochondrial mass”) is reported as “stable”.
For `CCCC[C@H](NC(=O)[C@H](CCCNC(=N)N)NC(=O)[C@@H](N)CC(=O)O)C(=O)N[C@@H](Cc1ccc(O)cc1)C(=O)N[C@H](C(=O)N[C@@H](Cc1c[nH]cn1)C(=O)N1CCC[C@H]1C(=O)O)[C@@H](C)CC` [Nle^3-A(1-7), Asp-Arg-Nle-Tyr-Ile-His-Pro] (H-DR[Nle]YIHP-OH), the “cellular mitochondrial mass” value was “stable”.
In the case of `CC[C@H](C)[C@H](NC(=O)[C@H](Cc1ccc(O)cc1)NC(=O)[C@@H](NC(=O)[C@H](CCCNC(=N)N)NC(=O)[C@@H](N)CC(=O)O)C(C)C)C(=O)N[C@@H](Cc1c[nH]cn1)C(=O)N1CCC[C@H]1C(=O)O` [angiotensin(1-7), H-Asp-Arg-Val-Tyr-Ile-His-Pro-OH], the “cellular mitochondrial mass” value is reported as “stable”.
